As usually defined, the IC50 is the concentration at which inhibition is half-maximal.

Like-named read-outs stand apart in the source and are kept apart here.

What all share (assay type): biochemical
Assay [1] has as its target human cathepsin B (Homo sapiens, UniProt P07858). Briefly: fluorogenic peptide cleavage assay.
Assay [2] deals with human cathepsin L (Homo sapiens, UniProt P07711). Description: fluorogenic peptide cleavage assay.
In assay [3] the target is SARS-CoV-2 3CL^pro (Severe acute respiratory syndrome coronavirus 2, UniProt P0DTD1).

human cathepsin L, sequence (P07711 114-333 limits assumed): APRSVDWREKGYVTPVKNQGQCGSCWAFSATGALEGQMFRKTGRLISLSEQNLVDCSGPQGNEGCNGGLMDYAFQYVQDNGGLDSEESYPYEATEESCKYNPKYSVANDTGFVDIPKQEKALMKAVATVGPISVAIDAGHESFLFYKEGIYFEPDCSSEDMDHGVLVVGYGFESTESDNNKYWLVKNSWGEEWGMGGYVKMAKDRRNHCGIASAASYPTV

Consider `CC(C)C[C@H](NC(=O)c1cc2c(F)cccc2[nH]1)C(=O)NN(C[C@@H]1CCNC1=O)C(=O)[C@H](F)Cl` [8a, N-((S)-1-(2-((R)-2-Chloro-2-fluoroacetyl)-2-(((S)-2-oxopyrrolidin-3-yl)methyl)hydrazineyl)-4-methyl-1-oxopentan-2-yl)-4-fluoro-1H-indole-2-carboxamide], for which the IC50 in assay [1] and in assay [2] was > 10000 nM throughout.

With `COc1cccc2[nH]c(C(=O)N[C@@H](CC(C)C)C(=O)NN(C[C@H]3CCNC3=O)C(=O)[C@H](F)Cl)cc12` [10b, N-((S)-1-(2-((R)-2-Chloro-2-fluoroacetyl)-2-(((R)-2-oxopyrrolidin-3-yl)methyl)hydrazineyl)-4-methyl-1-oxopentan-2-yl)-4-methoxy-1H-indole-2-carboxamide], the half-maximal inhibitory concentration (IC50) in assay [3] turned out to be 15.6 nM. That is a double-digit nanomolar value.

Take “N-((S)-1-(2-Acetyl-2-(((S)-2-oxopyrrolidin-3-yl)methyl)hydrazineyl)-4-methyl-1-oxopentan-2-yl)-4-fluoro-1H-indole-2-carboxamide [compound 12]”: in assay [3] ([…], no CFA warhead, 30 min preincubation, pH 7.3, 1 mM DTT, ambient temperature), the IC50 is 178 nM.

(Values after doi:10.1101/2022.06.05.494897v1 (biorxiv, 2022).)
